Test results from patent publication US20100093861A1, “TREATMENT OF INSULIN RESISTANCE OR DISEASES ASSOCIATED WITH INSULIN RESISTANCE” (Stevia ApS, priority 2006, published 2010).

What was measured:
[1] = tested on: total insulin protein content of KKAy islets; assay: Insulin content of isolated islets from KKAy mice (RIA); format: in vivo; details: KKAy mice after 9 weeks treatment
Protocol: The Insulin content of isolated islet from the KKAy mice was measured using RIA as described for the Insulin assay. Total islet protein was purified from the organic phase during from the RNA Trizol preparation according to the manufactures instruction (Gibco BRL, Life Technologies, Roskilde, DK).
In order to clarify if this increased levels of Ins1 mRNA are translated, the total insulin content from the very limited protein fraction collected from the organic phase during RNA preparation from isolated islets from the KKAY and ISV group was measured using RIA (FIG. 17). The insulin content from the ISV group compared to the KKAy control was 2.4 fold (p=0.003) higher, supporting the gene expression analysis.

Pax6 = assay: Affymetrix gene chip analysis of KKAy islets: Pax6; format: in vivo, mice; details: ISV vs. KKAy control islets, 9 weeks
Protocol: (§1) cRNA preparation and in vitro transcription: In total 6 Affymetrix arrays MOE430 2.0 probe array cartridge were used i.e. for analysis of 3 replicas for the KKAy control group and the ISV group, respectively. Each of the 6 samples consisted of pooled RNA from 3-4 KKAy mice. Preparation of target for hybridization was prepared from 340 ng of total RNA using MessageAmp™ II aRNA Amplification Kits (Ambion), according to the manufacturers instructions. Arrays were hybridised and scanned as described elsewhere (Kruhoffer et al., 2005).

C/EBPalpha = assay: Relative real time RT-PCR in islets of KKAy mice (Example 3): C/EBPalpha; format: in vivo; details: 9 weeks
Protocol: (§2) Islets were isolated by the collagenase digestion technique. In brief, the animals were anesthetized with pentobarbital (50 mg/kg intraperitoneally) and midline laparotomy was performed. The pancreas was retrogradely filled with 3 mL ice-cold Hanks balanced salt solution (([HBSS] Sigma Chemical, St Louis, Mo.) supplemented with 0.3 mg/ml collagenase Boehringer Mannheim GmbH, Germany). The pancreas was subsequently removed and incubated for 19 minutes at 37° C. After rinsing in HBSS, the islets were handpicked under a stereomicroscope and immediately transferred to a tubes containing 1 ml Trizol (Gibco/Invitrogene, Calsbad, Calif., USA). The islets isolated from the NMRI mice were incubated overnight at 37° C. and 95% normal atmosphere/5% CO2 in 10 ml RPMI 1640 containing 11.1 mmol/L glucose supplemented with penicillin G and 100 μg/mL streptomycin (all Gibco/Invitrogene, Calsbad, Calif., USA).
(§3) For each group, islets from 3-4 mice (180-200 islets) were pooled in 1 ml Trizol reagent (Gibco/lnvitrogene, Calsbad, Calif., USA) before RNA purification. Total RNA was extracted according to the manufactures' instructions. RNA was quantified by measuring absorbance at 260 and 280 nm. The quality of the RNA was checked by the Agilent 2100 bioanalyzer (Agilent, Santa Clara, USA). […]

Pdx1 = assay: Affymetrix gene chip analysis of KKAy islets: Pdx1; format: in vivo, mice; details: ISV vs. KKAy control islets, 9 weeks
Protocol: as §1

visfatin = assay: Affymetrix gene chip analysis of KKAy islets: visfatin; format: in vivo, mice; details: ISV vs. KKAy control islets, 9 weeks
Protocol: as §1

Nkx6-1 = assay: Affymetrix gene chip analysis of KKAy islets: Nkx6-1; format: in vivo, mice; details: ISV vs. KKAy control islets, 9 weeks
Protocol: as §1

11beta-HSD1 = assay: Gene expression in islets from diabetic KKAy-mice, real time RT-PCR (Example 2): 11beta-HSD1; format: in vivo; details: islets of KKAy-mice after nine weeks treatment, normalized to 18S rRNA
Protocol: (§4) A the end of the nine week period of the in vivo study in example 1 RNA was purified from Islets, muscle, liver and fat from the three experimental groups, using standard techniques as described in Kiergen, RNA easy.
(§5) Gene expression of PDX-1, IRS1, Beta2, 11beta-HSD-1, Akt1, C/EBP-alpha, CPT1, GLUT2, IGF1, IR and Ins1 was measured with Real time RT-PCR using Taq Man Assays normalized to 18S rRNA, using the standard protocol (ABI, USA). All reagents were obtained from (ABI, USA). All probes are standard probes obtainable from ABI, USA, under the specific probe code number, given in respect of each gene.

Pdx1/Ipf1 = assay: Relative real time RT-PCR in islets of KKAy mice (Example 3): Pdx1/Ipf1; format: in vivo; details: 9 weeks
Protocol: as §2, §3

PDX-1 = assay: Gene expression in islets from diabetic KKAy-mice, real time RT-PCR (Example 2): PDX-1; format: in vivo; details: islets of KKAy-mice after nine weeks treatment, normalized to 18S rRNA
Protocol: as §4, §5

## C[C@@]12CC[C@@H]3[C@@](CC[C@H]4[C@@]3(C)CCC[C@@]4(C)C(=O)O)(CC1=O)C2 (single isomer, unassigned; ent-16) [ISV, ent-16-ketobeyeran-19-oic acid]
[1]
  insulin content of islets compared to the KKAy control, higher: 2.4 fold
Pax6
  array: increased expression in Pax6: 1.9 fold
C/EBPalpha; RT-PCR
  reduction of C/EBP-alpha mRNA expression: 2 fold
C/EBPalpha; normalized to 18S rRNA
  decreased expression of C/EBPalpha, ISV group vs. control group: 49%
Pdx1
  array: change of Pdx1 expression: upregulation
visfatin
  array: change of visfatin expression: no changes
Nkx6-1
  array: increased expression in Nkx6-1: 2.64 fold
11beta-HSD1
  decreased expression of 11beta-HSD1 compared to standard diet: 61%
Pdx1/Ipf1; RT-PCR
  up regulation of Pdx1: ~2 fold
Pdx1/Ipf1; normalized to 18S rRNA
  increased expression of Pdx1/Ipf1, ISV group vs. control group: 96%
PDX-1
  increased expression of PDX-1 compared to standard diet: 96%
